Target: hTREM2 (Homo sapiens, UniProt Q9NZC2)
Test: Phospho-Syk AlphaLisa assay in HEK293T-hTREM2 cells expressing human TREM2 and DAP12 (Example A2)
Type: cell-based
Design: expressed in transfected cells; host or cells: HEK293T-hTREM2 cells
Details: HEK293 cells, Syk phosphorylation, Examples 276-283
Method: Measurement of TREM2 agonist potency was done using a HEK cell line expressing human TREM2 and DAP12 (HEK293T-hTREM2 cells). Binding of small molecules to, and activation of, TREM2 increases the phosphorylation of Syk. The resultant levels of Syk phosphorylation were measured using a commercial AlphaLisa reagent kit. To perform the assay, HEK-hTREM2 cells were plated at 14,000 cells per well in a 384 well plate, in 25 μL of complete growth media and incubated at 37° C., 5% CO2 for 20-24 hours. Prior to the assay, test compounds were diluted in the 384 well plates in assay buffer and allowed to equilibrate for 30 minutes. Growth media was removed from cell plates by inversion on blotting paper, and 25 μL of test compounds in assay buffer was added to cells. Cells were incubated for 45 minutes at room temperature. After 45 minutes, assay buffer was removed and 10 μL of lysis buffer was added. Plates were shaken for 20 minutes at 350 RPM at room temperature. After complete lysis, AlphaLisa reagents were added to the lysate, and fluorescence intensity was measured using a Perkin Elmer Envision plate reader. Intensities were used to generate a standard curve, and % activation was calculated. Curve fitting was performed using Prism v9 software, log(agonist) vs response—variable slope (four parameters), and EC50s were calculated from the curve fit.
The results presented in Table 11 have been generated with the in vitro assay described above for Examples 276-283. This assay may be used to test any of the compounds described herein to assess and characterize a compound's ability to act as an agonist of TREM2.

Sequence of hTREM2 (Q9NZC2 19-230): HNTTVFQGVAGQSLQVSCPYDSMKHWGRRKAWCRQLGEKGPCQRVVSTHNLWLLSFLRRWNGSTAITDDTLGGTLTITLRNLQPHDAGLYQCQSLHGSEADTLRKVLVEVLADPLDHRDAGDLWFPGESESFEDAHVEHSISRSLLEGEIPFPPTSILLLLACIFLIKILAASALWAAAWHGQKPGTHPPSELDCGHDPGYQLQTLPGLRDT
Sequence of hTREM2 (O43914 22-113 partner): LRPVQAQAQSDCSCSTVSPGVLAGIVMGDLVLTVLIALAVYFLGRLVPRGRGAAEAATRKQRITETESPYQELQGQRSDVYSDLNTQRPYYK

| SMILES | EC50 |
| --- | --- |
| Cc1cc([C@H]2C[C@@H](c3cc4nc(C)n(C)c(=O)c4c(-c4ccc(F)cc4F)n3)CCO2)ccn1 (racemic) [Example 278, 5-(2,4-difluorophenyl)-2,3-dimethyl-7-(2-(2-methylpyridin-4-yl)tetrahydro-2H-pyran-4-yl)pyrido[4,3-d]pyrimidin-4(3H)-one] | 50 to 500 nM |
| Cc1cc(C2CN(c3cc4nc(C)n(C)c(=O)c4c(-c4ccc(F)cc4F)n3)CCO2)ccn1 (centres unmarked) [Example 276, 5-(2,4-difluorophenyl)-2,3-dimethyl-7-(2-(2-methylpyridin-4-yl)morpholino)pyrido[4,3-d]pyrimidin-4(3H)-one] | < 50 nM |
| Cc1cc([C@H]2C[C@@H](c3cc4nc(C)n(C)c(=O)c4c(-c4ccc(C(F)(F)F)nc4)n3)CCO2)ccn1 [Example 277, 2,3-dimethyl-7-(2-(2-methylpyridin-4-yl)tetrahydro-2H-pyran-4-yl)-5-(6-(trifluoromethyl)pyridin-3-yl)pyrido[4,3-d]pyrimidin-4(3H)-one] | 50 to 500 nM |
| COc1cc(C2CN(c3cc4nc(C)n(C)c(=O)c4c(-c4ccc(F)cc4F)n3)CCO2)ccn1 (centres unmarked) [Example 279, 5-(2,4-difluorophenyl)-7-(2-(2-methoxypyridin-4-yl)morpholino)-2,3-dimethylpyrido[4,3-d]pyrimidin-4(3H)-one] | < 50 nM |
| Cc1cc(C2CN(c3cc4nc(C)n(C)c(=O)c4c(-c4ccc(C(F)(F)F)nc4)n3)CCO2)ccn1 (centres unmarked) [Example 280, 2,3-dimethyl-7-(2-(2-methylpyridin-4-yl)morpholino)-5-(6-(trifluoromethyl)pyridin-3-yl)pyrido[4,3-d]pyrimidin-4(3H)-one] | < 50 nM |

Results, then the compound that gave them:

| EC50 | SMILES |
| --- | --- |
| < 50 nM | Cc1cc([C@H]2C[C@@H](c3cc4nc(C)n(C)c(=O)c4c(C45CC(C(F)(F)F)(C4)C5)n3)CCO2)ccn1 (racemic) [Example 281, 2,3-dimethyl-7-(2-(2-methylpyridin-4-yl)tetrahydro-2H-pyran-4-yl)-5-(3-(trifluoromethyl)bicyclo[1.1.1]pentan-1-yl)pyrido[4,3-d]pyrimidin-4(3H)-one] |
| < 50 nM | Cc1cc(C2CN(c3cc4nc(C)n(C)c(=O)c4c(C45CC(C(F)(F)F)(C4)C5)n3)CCO2)ccn1 (centres unmarked) [Example 282, 2,3-dimethyl-7-(2-(2-methylpyridin-4-yl)morpholino)-5-(3-(trifluoromethyl)bicyclo[1.1.1]pentan-1-yl)pyrido[4,3-d]pyrimidin-4(3H)-one] |
| 50 to 500 nM | COc1cc(C2CN(c3cc4nc(C)n(C)c(=O)c4c(C45CC(C(F)(F)F)(C4)C5)n3)CCO2)ccn1 (centres unmarked) [Example 283, 7-(2-(2-methoxypyridin-4-yl)morpholino)-2,3-dimethyl-5-(3-(trifluoromethyl)bicyclo[1.1.1]pentan-1-yl)pyrido[4,3-d]pyrimidin-4(3H)-one] |

Reference: patent US20250388574A1, “HETEROCYCLIC COMPOUNDS AS TRIGGERING RECEPTOR EXPRESSED ON MYELOID CELLS 2 AGONISTS AND METHODS OF USE” (AMGEN INC., priority 2020, published 2025)
